The experiment addresses T1, FGFR1 (Homo sapiens, UniProt P11362).
T1 construct: purchased Invitrogen PV4105
The experiment in a line: Z′-LYTE Detection Kinase Assay, in vitro enzymatic activity. In kind it is biochemical. Particulars: 0.6 nM FGFR1, 2 uM Tyr4 peptide, 10 uM ATP, 60 min 23° C. On the procedure:
To measure enzyme activity by Z′-LYTE™ Detection Kinase Assay, and to evaluate the inhibitory effect of the compounds on FGFR1 using IC50 value of the compounds as an indicator. […]
Reaction Buffer: 50 mM Hepes (pH 7.5), 10 mM MgCl2, 1 mM EGTA, 0.01% Brij-35, 1 mM DTT, 2 mM MnCl2 0.6 nM FGFR1, 2 uM Tyr4 peptide and 10 uM ATP in reaction buffer (50 mM Hepes, pH 7.5, 10 mM MgCl2, 0.01% BRIJ-35, 1 mM EGTA, 4 mM MnCl2, 2 mM DTT). a. Diluting the compounds with DMSO to 10 mM, 3-fold dilution, 11 gradients, duplicate wells. b. Diluting the compound by 1:25 into middle plate at Bravo Automatic Liquid Station, then transferring 2.5 ul to the reaction plate to ensure the final DMSO concentration to be 1%. c. Transferring 5 ul of enzyme/substrate buffer into each well d. Using Multidrop Liquid Workstation to sequentially add ATP solution to each well e. Centrifuging at 1000 rpm for 1 minute f. Placing the reaction plate in an incubator at 23° C. to react for 60 min. a. Preparing a 1:128 mixture of Development Regent B and Development Buffer b. Adding 5 ul to each well and centrifuging at 1000 rpm for 1 minute c. Placing the reaction plate in a thermostat (23° C.) after centrifuging for 90 minutes, removing and reading on Envision (Perkin Elmer) Plate Reader
D. Analyzing Data: Analyzing Data Using XLFIT (IDBS) and Calculating IC50 Values for the Compounds.

The results in this text go back to patent US10519133B2, “Vinyl compounds as FGFR and VEGFR inhibitors” (MEDSHINE DISCOVERY INC., priority 2015, dated 2019).

Each structure is given as a SMILES string.

T1 sequence (P11362 22-822): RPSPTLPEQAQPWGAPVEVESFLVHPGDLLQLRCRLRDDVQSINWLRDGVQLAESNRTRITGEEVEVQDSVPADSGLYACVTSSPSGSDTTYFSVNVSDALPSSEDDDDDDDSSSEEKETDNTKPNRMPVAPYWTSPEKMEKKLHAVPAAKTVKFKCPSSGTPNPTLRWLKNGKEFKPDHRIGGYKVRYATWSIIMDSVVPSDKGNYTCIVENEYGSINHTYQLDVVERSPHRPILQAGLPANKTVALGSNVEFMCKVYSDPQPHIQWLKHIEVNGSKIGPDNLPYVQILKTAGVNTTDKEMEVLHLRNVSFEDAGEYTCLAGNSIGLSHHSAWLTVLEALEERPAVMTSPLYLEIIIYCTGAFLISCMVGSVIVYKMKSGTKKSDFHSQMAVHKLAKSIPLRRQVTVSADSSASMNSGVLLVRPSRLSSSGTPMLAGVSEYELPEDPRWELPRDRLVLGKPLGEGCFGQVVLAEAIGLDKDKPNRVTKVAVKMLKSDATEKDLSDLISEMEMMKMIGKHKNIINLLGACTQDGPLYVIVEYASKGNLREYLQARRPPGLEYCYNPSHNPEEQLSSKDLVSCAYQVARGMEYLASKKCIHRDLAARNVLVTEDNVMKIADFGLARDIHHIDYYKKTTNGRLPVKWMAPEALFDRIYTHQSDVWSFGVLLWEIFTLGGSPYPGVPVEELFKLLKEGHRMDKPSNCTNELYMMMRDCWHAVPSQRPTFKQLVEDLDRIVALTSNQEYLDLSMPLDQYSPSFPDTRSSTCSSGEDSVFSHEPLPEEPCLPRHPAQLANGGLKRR

By IC50 is commonly meant the concentration that gives 50% inhibition. A higher IC50 goes with lower potency. As to `CC(Oc1ccc2[nH]nc(/C=C/c3ccc(CN4CCOCC4)cc3C#N)c2c1)c1c(Cl)cncc1Cl` (stereo not drawn) [Example 60], the half-maximal inhibitory concentration (IC50) is 50 to 1000 nM. Then `CC(Oc1ccc2[nH]nc(/C=C/c3cc(N)c(CN4CCOCC4)cc3F)c2c1)c1c(Cl)cncc1Cl` (stereo not drawn) [Example 61], with 50 to 1000 nM; and `CC(Oc1ccc2[nH]nc(/C=C/c3ccc(CN4CCOCC4)c(C(F)(F)F)c3)c2c1)c1c(Cl)cncc1Cl` (stereo not drawn) [Example 64], with 50 to 1000 nM; and `[2H]C([2H])(c1ccc(/C=C/c2n[nH]c3ccc(OC(C)c4c(Cl)cncc4Cl)cc23)nn1)N1CCOCC1` (stereo not drawn) [Example 65], with at most 10 nM. `CC(Oc1ccc2[nH]nc(/C=C/c3ccc(CN4CCOCC4)nn3)c2c1)c1c(Cl)cncc1Cl` (stereo not drawn) [Example 66] displayed a half-inhibitory concentration (IC50) of at most 10 nM. `C[C@@H](Oc1ccc2[nH]nc(/C=C/c3ccc(CN4CCOCC4)nn3)c2c1)c1c(Cl)cncc1Cl` [Example 67] came in with an IC50 of at most 10 nM. `C[C@@H](Oc1ccc2[nH]nc(/C=C/c3ccc(CNC4CCOCC4)nn3)c2c1)c1c(Cl)cncc1Cl` [Example 68] came in with an IC50 of at most 10 nM. Then `C[C@@H](Oc1ccc2[nH]nc(/C=C/c3ccc(CN4CCC(O)C4)nn3)c2c1)c1c(Cl)cncc1Cl` (stereo partly drawn) [Example 69], with at most 10 nM. `CC(Oc1ccc2[nH]nc(/C=C/c3ccc(N4CCN(C)CC4)nc3)c2c1)c1c(Cl)cncc1Cl` (stereo not drawn) [Example 71] had an IC50 of 10 to 50 nM. Then `CC(Oc1ccc2[nH]nc(/C=C/c3ccc(CN4CCC(O)CC4)cc3)c2c1)c1c(Cl)cncc1Cl` (stereo not drawn) [Example 72], with at most 10 nM; and `CC(Oc1ccc2[nH]nc(/C=C/c3ccc(CN4CC[C@@H](N(C)C)C4)cc3)c2c1)c1c(Cl)cncc1Cl` (stereo partly drawn) [Example 73], with at most 10 nM. Then `CC(Oc1ccc2[nH]nc(/C=C/c3ccc(CN4CCC(CO)CC4)cc3)c2c1)c1c(Cl)cncc1Cl` (stereo not drawn) [Example 74], with at most 10 nM. Then `CC(Oc1ccc2[nH]nc(/C=C/c3ccc(CNC4CCOCC4)cc3)c2c1)c1c(Cl)cncc1Cl` (stereo not drawn) [Example 78], with at most 10 nM. Compound `CC(Oc1ccc2[nH]nc(/C=C/c3ccc(CN4CCc5ccccc5C4)cc3)c2c1)c1c(Cl)cncc1Cl` (stereo not drawn) [Example 80] yielded an IC50 of 50 to 1000 nM. The compound `CC(Oc1ccc2[nH]nc(/C=C/c3ccc(CN4CCCCC4)cc3)c2c1)c1c(Cl)cncc1Cl` (stereo not drawn) [Example 81] gave an IC50 of at most 10 nM. Then `CC(Oc1ccc2[nH]nc(/C=C/c3ccc(CN4CCC(c5ccccc5)CC4)cc3)c2c1)c1c(Cl)cncc1Cl` (stereo not drawn) [Example 82], with 50 to 1000 nM; and `CC(Oc1ccc2[nH]nc(/C=C/c3ccc(CN4CCN(c5ccccc5)CC4)cc3)c2c1)c1c(Cl)cncc1Cl` (stereo not drawn) [Example 83], with 50 to 1000 nM.

Compound `CC(Oc1ccc2[nH]nc(/C=C/c3ccc(CN(CCN(C)C)Cc4ccccc4)cc3)c2c1)c1c(Cl)cncc1Cl` (stereo not drawn) [Example 86] yielded an IC50 of 50 to 1000 nM. `CC(Oc1ccc2[nH]nc(/C=C/c3ccc(CNCc4ccccc4)cc3)c2c1)c1c(Cl)cncc1Cl` (stereo not drawn) [Example 87]: the IC50 lay within 50 to 1000 nM.

On to `CC(Oc1ccc2[nH]nc(/C=C/c3ccc(CN4CCOC(CO)C4)cc3)c2c1)c1c(Cl)cncc1Cl` (stereo not drawn) [Example 88], for which the IC50 lay in the range of 10 to 50 nM. Then `CC(Oc1ccc2[nH]nc(/C=C/c3ccc(CNCCN4CCOCC4)cc3)c2c1)c1c(Cl)cncc1Cl` (stereo not drawn) [Example 89], with at most 10 nM; and `CC(Oc1ccc2[nH]nc(/C=C/c3ccc(CN4CCC(Cc5ccccc5)CC4)cc3)c2c1)c1c(Cl)cncc1Cl` (stereo not drawn) [Example 90], with 50 to 1000 nM. Then `CCN(Cc1ccccc1)Cc1ccc(/C=C/c2n[nH]c3ccc(OC(C)c4c(Cl)cncc4Cl)cc23)cc1` (stereo not drawn) [Example 91], with 50 to 1000 nM. Then `CC(Oc1ccc2[nH]nc(/C=C/c3ccc(CN4CCN(C)CC4)cc3)c2c1)c1c(Cl)cncc1Cl` (stereo not drawn) [Example 93], with 10 to 50 nM; and `CC(Oc1ccc2[nH]nc(/C=C/c3ccc(CN(C)Cc4ccccc4)cc3)c2c1)c1c(Cl)cncc1Cl` (stereo not drawn) [Example 94], with 50 to 1000 nM.

On to `CCN(Cc1ccccc1)Cc1ccc(/C=C/c2n[nH]c3ccc(OC(C)c4c(Cl)cncc4Cl)cc23)cc1` (stereo not drawn) [Example 95], for which the IC50 lay within 50 to 1000 nM.

With `CC1CN(Cc2ccc(/C=C/c3n[nH]c4ccc(OC(C)c5c(Cl)cncc5Cl)cc34)cc2)CCN1` (stereo not drawn) [Example 97], the IC50 is at most 10 nM. In the case of `CC(Oc1ccc2[nH]nc(/C=C/c3ccc(CNc4ccccc4)cc3)c2c1)c1c(Cl)cncc1Cl` (stereo not drawn) [Example 99], the IC50 lay in the range of 50 to 1000 nM.

For the compound `CC(Oc1ccc2[nH]nc(/C=C/c3ccc(CN4CCCOCC4)cc3)c2c1)c1c(Cl)cncc1Cl` (stereo not drawn) [Example 100], the half-inhibitory concentration (IC50) is at most 10 nM.

In turn, `CC(Oc1ccc2[nH]nc(/C=C/c3ccc(CN4CCCC(CO)C4)cc3)c2c1)c1c(Cl)cncc1Cl` (stereo not drawn) [Example 101] registered an IC50 of at most 10 nM. Then `CC(Oc1ccc2[nH]nc(/C=C/c3ccc(CN4CCN(C(C)C)CC4)cc3)c2c1)c1c(Cl)cncc1Cl` (stereo not drawn) [Example 102], with at most 10 nM; and `CNC(=O)C1CCN(Cc2ccc(/C=C/c3n[nH]c4ccc(OC(C)c5c(Cl)cncc5Cl)cc34)cc2)CC1` (stereo not drawn) [Example 103], with at most 10 nM; and `CCN(Cc1ccc(/C=C/c2n[nH]c3ccc(OC(C)c4c(Cl)cncc4Cl)cc23)cc1)C1CCCCC1` (stereo not drawn) [Example 104], with 50 to 1000 nM. As for `CC(Oc1ccc2[nH]nc(/C=C/c3ccc(CN4CCC(O)C4)cc3)c2c1)c1c(Cl)cncc1Cl` (stereo not drawn) [Example 106], the IC50 is at most 10 nM.

Take `CC(Oc1ccc2[nH]nc(/C=C/c3ccc(CN4CCOC[C@@H]4C)cc3)c2c1)c1c(Cl)cncc1Cl` (stereo partly drawn) [Example 107]: the IC50 fell in the range of 50 to 1000 nM. Then `CC1CN(Cc2ccc(/C=C/c3n[nH]c4ccc(OC(C)c5c(Cl)cncc5Cl)cc34)cc2)CC(C)O1` (stereo not drawn) [Example 108], with 50 to 1000 nM; and `CC(=O)N1CCN(Cc2ccc(/C=C/c3n[nH]c4ccc(OC(C)c5c(Cl)cncc5Cl)cc34)cc2)CC1` (stereo not drawn) [Example 109], with at most 10 nM; and `CC1CN(C(=O)c2ccc(-c3n[nH]c4ccc(OC(C)c5c(Cl)cncc5Cl)cc34)cc2)CCN1` (stereo not drawn) [Example 112], with 50 to 1000 nM. Then `CC(Oc1ccc2[nH]nc(-c3ccc(C(=O)N4CCOCC4)cc3)c2c1)c1c(Cl)cncc1Cl` (stereo not drawn) [Example 113], with 50 to 1000 nM; and `CC(Oc1ccc2[nH]nc(-c3ccc(C(=O)N4CCC(O)CC4)cc3)c2c1)c1c(Cl)cncc1Cl` (stereo not drawn) [Example 114], with 50 to 1000 nM.

Take `CC(Oc1ccc2[nH]nc(-c3ccc(C(=O)N4CCC(N(C)C)CC4)cc3)c2c1)c1c(Cl)cncc1Cl` (stereo not drawn) [Example 115]: the IC50 fell in the range of 10 to 50 nM. The compound `CC(Oc1ccc2[nH]nc(-c3ccc(C(=O)N4CCN(C)CC4)cc3)c2c1)c1c(Cl)cncc1Cl` (stereo not drawn) [Example 116] registered an IC50 of 50 to 1000 nM. Then `CC(Oc1ccc2[nH]nc(-c3ccc(C(=O)N4CCN(C(C)C)CC4)cc3)c2c1)c1c(Cl)cncc1Cl` (stereo not drawn) [Example 117], with 50 to 1000 nM; and `CC(Oc1ccc2[nH]nc(-c3ccc(C(=O)N4CCC(O)C4)cc3)c2c1)c1c(Cl)cncc1Cl` (stereo not drawn) [Example 119], with 50 to 1000 nM; and `CC(=O)N(C)C1CCN(C(=O)c2ccc(-c3n[nH]c4ccc(OC(C)c5c(Cl)cncc5Cl)cc34)cc2)C1` (stereo not drawn) [Example 120], with 50 to 1000 nM. Then `CC(Oc1ccc2[nH]nc(-c3ccc(C(=O)N4CC[C@@H](N(C)C)C4)cc3)c2c1)c1c(Cl)cncc1Cl` (stereo partly drawn) [Example 121], with 50 to 1000 nM. Then `CC(Oc1ccc2[nH]nc(-c3ccc(C(=O)NCCN4CCOCC4)cc3)c2c1)c1c(Cl)cncc1Cl` (stereo not drawn) [Example 125], with 50 to 1000 nM; and `CC(Oc1ccc2[nH]nc(-c3ccc(C(=O)N4CCNCC4C)cc3)c2c1)c1c(Cl)cncc1Cl` (stereo not drawn) [Example 126], with 50 to 1000 nM; and `C[C@@H](Oc1ccc2[nH]nc(-c3cccc(C(=O)NC4CCOCC4)c3)c2c1)c1c(Cl)cncc1Cl` [Example 127], with 50 to 1000 nM. In turn, `C[C@@H](Oc1ccc2[nH]nc(-c3cccc(C(=O)N4CC[C@H](O)C4)c3)c2c1)c1c(Cl)cncc1Cl` [Example 129] showed an IC50 of 50 to 1000 nM. The compound `C[C@@H](Oc1ccc2[nH]nc(-c3cccc(C(=O)N4CCC(CO)CC4)c3)c2c1)c1c(Cl)cncc1Cl` [Example 130] yielded an IC50 of 50 to 1000 nM.

Compound `C[C@@H](Oc1ccc2[nH]nc(/C=C/c3cccc(CNC4CCOCC4)c3)c2c1)c1c(Cl)cncc1Cl` [Example 132] gave an IC50 of at most 10 nM. Regarding `C[C@@H](Oc1ccc2[nH]nc(/C=C/c3cccc(CN4CCC(O)C4)c3)c2c1)c1c(Cl)cncc1Cl` (stereo partly drawn) [Example 134], the IC50 was at most 10 nM. Then `C[C@@H](Oc1ccc2[nH]nc(/C=C/c3cccc(CN4CCC(CO)CC4)c3)c2c1)c1c(Cl)cncc1Cl` [Example 135], with at most 10 nM; and `C[C@@H](Oc1ccc2[nH]nc(/C=C/c3ccc(CN4CCOCC4)nc3)c2c1)c1c(Cl)cncc1Cl` [Example 137], with at most 10 nM. Then `C[C@@H](Oc1ccc2[nH]nc(/C=C/c3ccc(CN4CC[C@H](O)C4)nc3)c2c1)c1c(Cl)cncc1Cl` [Example 138], with at most 10 nM; and `C[C@@H](Oc1ccc2[nH]nc(/C=C/c3ccc(CN4CCC(CO)CC4)nc3)c2c1)c1c(Cl)cncc1Cl` [Example 140], with 10 to 50 nM.
